{"source": "patent US10201535B2", "about": "(priority 2011, dated 2019)", "key": {"[1]": {"experimental": "To assure the integrity of each skin section, its permeability to tritiated water was determined before application of the test products."}, "[2]": {"test_system": "37° C. induced vessel dilation (cutaneous blood flow) in rat paws", "experiment": "Rat Blood Flow Assay (laser Doppler flowmetry, hind foot pad)", "assay_type": "in vivo", "conditions": "4 days of topical dosing (once per day), 0.1%, hairless CD rats", "experimental": "A laser Doppler microvascular perfusion monitor (laser Doppler flowmetry technique, LDF) was used to monitor red blood cell perfusion in the microvasculature of the hind foot pad. The laser doppler flowmetry (LDF) is an OxyFlo Microvascular Perfusion Monitor, from Oxford Optronix Ltd. UK.\nBriefly, 15 μL of test articles was applied topically once, or repeatedly (once daily for 4 consecutive days) to one hind foot pad of anaesthetized hairless CD rats and 15 μL of vehicle was applied to the other footpad.\nAt various timepoints up to 8 hrs following the last test article administration, dynamic blood flow changes were measured and recorded every 15 seconds for 4 minutes per temperature interval for 5 intervals (22° C.→37° C.→4° C.→37° C.→22° C.).\nRats were placed on a 37° C. heat pad to increase their temperature and on an ice pad to decrease their temperature to 4° C. The levels of blood flow in the two paws were compared.\nThe % blood flow inhibition is calculated as the % difference in the AUC of peak 1 (first 8 min heating and cooling interval) of the laser doppler recordings between the drug-treated and vehicle-treated paws. Data are the mean % inhibition values from 8-10 rats per group."}, "[3]": {"test_system": "LL-37-induced skin inflammation", "experiment": "LL-37-Induced Skin Inflammation Mouse Model (ear swelling)", "assay_type": "in vivo", "conditions": "at 6 and 9 hrs after topical treatment, gel on ears of BALB/c mice", "experimental": "One hour following application, the left ear was intradermally injected with LL-37 peptide and the right ear was injected with phosphate-buffered saline (PBS). Ear thickness measurements were made with a digital caliper (Mitutoyo) at various timepoints up to 8 hrs post-injection with LL-37. Ear swelling is an indicator of inflammation.\nThe data are the mean values from 9-10 mice per group."}, "[4]": {"test_system": "UVB-induced erythema, cutaneous vessel dilation and tactile hypersensitivity in SKH1 hairless mice", "experiment": "Ultraviolet B-Induced Mouse Sunburn Model", "assay_type": "in vivo", "from_the_text": "SKH1 hairless mice, lying on their stomachs with their left sides covered, were exposed to UVB at an intensity of 120 mJ/cm^2 for 91 sec. […] At various timepoints up to 48 hrs post UVB-irradiation, the following assessments were made:\n1. Vasculature area in the exposed and unexposed ears by image analysis of digital photos using ImagePro Premier (Media Cybernetics) software. Images are converted to gray-scale, expanded and thresholding, based on each ear's baseline pixel values, is applied to the images. Thresholding differentiates the desired “object” features (i.e. vasculature network) from the background (i.e. skin tissue). The “object” pixels are then quantified and reported as the vasculature area.\n2. Erythema on the exposed and unexposed back using a Chromameter (Konica Minolta).\n3. Tactile hypersensitivity assessment using a paint brush test. The hypersensitivity is assessed by light stroking of the flank of the mice with a small paint brush every 5 min over 35 min. The behavioral response is scored as follows: 0, no response; 1, mild squeaking with attempts to move away from the brush; 2, vigorous squeaking evoked by the brush, biting at the brush and strong efforts to escape. The scores at the eight timepoints are summed so the maximum hypersensitivity score for each mouse can be 16. The exposed (right) and unexposed (left) flanks were scored independently."}, "[5]": {"test_system": "UVB-exposed skin of SKH1 hairless mice", "experiment": "Mouse Model of UV-Induced Erythema (histology of back skin)", "assay_type": "in vivo", "conditions": "for mice with overall healing good to excellent / EPIDERMIS Hyperplasia / DERMIS Congestion / DERMIS Edema / DERMIS Infiltrates / EPIDERMIS Disorganization / EPIDERMIS Necrosis / EPIDERMIS Separation: skin 48 hours after UVB; for EPIDERMIS Hyperplasia / DERMIS Congestion / DERMIS Edema / DERMIS Infiltrates / EPIDERMIS Disorganization / EPIDERMIS Necrosis / EPIDERMIS Separation: mean grade", "experimental": "The right backs of male SKH1 hairless mice were exposed to 120 mJ/cm^2 UVB radiation, while the left sides were shielded. […] An additional group with vehicle applied topically at 20 minutes post UVB exposure served as a control. Samples of skin from the backs from both left and right sides were collected 48 hours following UVB exposure and examined histologically.\nEach endpoint is graded on a scale of 0-4 (0=no findings, 1=minimal, 2=mild, 3=moderate, 4=marked). Data are expressed as the mean of values from 6 mice per group."}, "[6]": {"conditions": "0.1% topical, 20 minutes following UVB exposure"}, "[7]": {"conditions": "scale 0-4, 0.1% topical 20 min after UVB"}, "[8]": {"conditions": "scale 0-4, 0.1% topical 4 hr after UVB"}, "[9]": {"conditions": "scale 0-4, 0.1% topical 8 hr after UVB"}}, "data": [{"molecule": "c1cnc2c(c1)CC[C@H](Cc1c[nH]cn1)C2", "note": "[(S)-(+)-7-(1H-Imidazol-4-ylmethyl)-5,6,7,8-tetrahydro-quinoline]", "values": [{"measurement": "penetration into and through skin", "setting": "[1]", "result": "does penetrate into and through ex vivo human trunk skin"}, {"measurement": "distribution in skin layers (mass recovered)", "setting": "[1]; 48 hour dose exposure, 0.58% (w/w) dose, FIG. 3", "result": "higher concentration in the epidermis"}, {"measurement": "rate of percutaneous absorption (flux into receptor solution)", "setting": "[1]; human", "result": "increased rate of flux at the 18 and 36 hr timepoints"}, {"measurement": "duration of statistically significant inhibition of 37° C. induced vessel dilation", "setting": "[2]", "result": "at least 6 hrs"}, {"measurement": "inhibition of LL-37-induced skin inflammation (ear swelling)", "setting": "[3]", "result": "statistically significant inhibition"}, {"measurement": "duration of statistically significant reduction of erythema to nearly baseline levels (chromameter)", "setting": "[4]; topical dosing to the back 30 min following UVB exposure", "result": "at least 48 hrs"}, {"measurement": "tactile hypersensitivity (paint brush test)", "setting": "[4]; topical dosing to the back 30 min following UVB exposure, assessed 4 hrs following UVB irradiation, both UV-exposed and control sides", "result": "statistically significant reduction of tactile hypersensitivity"}, {"measurement": "duration of statistically significant cutaneous vasoconstriction (reduction of cutaneous vasculature area) to nearly baseline levels", "setting": "[4]; topical dosing to the ear 30 min following UVB exposure", "result": "at least 48 hrs"}, {"measurement": "edema, mixed inflammatory cell infiltrates and vascular congestion of the underlying dermis", "setting": "[5]; [6]", "result": "significantly reduced"}, {"measurement": "outcome of healing of UVB-exposed back skin", "setting": "[5]; [6]", "result": "significantly improved the outcome of healing"}, {"measurement": "mice with overall healing good to excellent", "setting": "[5]; 0.1% topical, treated at 20 minutes post UVB exposure", "result": 75, "unit": "%"}, {"measurement": "mice with overall healing good to excellent", "setting": "[5]; 0.1% topical, treated at 4 hours post UVB exposure", "result": 50, "unit": "%"}, {"measurement": "mice with overall healing good to excellent", "setting": "[5]; 0.1% topical, treated at 8 hours post UVB exposure", "result": 60, "unit": "%"}, {"measurement": "mice with epidermal failure (moderate to marked separation and necrosis)", "setting": "[5]; 0.1% topical, treated up to 8 hours following UVB exposure (all treated mice)", "result": 8, "unit": "%"}, {"measurement": "EPIDERMIS Hyperplasia", "setting": "[5]; scale 0-4 (0=no findings, 4=marked), 0.1% topical 20 min after UVB", "result": 3.0}, {"measurement": "DERMIS Congestion", "setting": "[5]; [7]", "result": 1.0}, {"measurement": "DERMIS Edema", "setting": "[5]; [7]", "result": 0.5}, {"measurement": "DERMIS Infiltrates", "setting": "[5]; [7]", "result": 0.8}, {"measurement": "EPIDERMIS Disorganization", "setting": "[5]; [7]", "result": 2.0}, {"measurement": "EPIDERMIS Necrosis", "setting": "[5]; [7]", "result": 0.5}, {"measurement": "EPIDERMIS Separation", "setting": "[5]; [7]", "result": 0.3}, {"measurement": "DERMIS Congestion", "setting": "[5]; [8]", "result": 1.8}, {"measurement": "DERMIS Edema", "setting": "[5]; [8]", "result": 2.0}, {"measurement": "DERMIS Infiltrates", "setting": "[5]; [8]", "result": 2.0}, {"measurement": "EPIDERMIS Disorganization", "setting": "[5]; [8]", "result": 3.0}, {"measurement": "EPIDERMIS Hyperplasia", "setting": "[5]; [8]", "result": 2.3}, {"measurement": "EPIDERMIS Necrosis", "setting": "[5]; [8]", "result": 1.3}, {"measurement": "EPIDERMIS Separation", "setting": "[5]; [8]", "result": 1.3}, {"measurement": "DERMIS Congestion", "setting": "[5]; [9]", "result": 1.0}, {"measurement": "DERMIS Edema", "setting": "[5]; [9]", "result": 1.5}, {"measurement": "DERMIS Infiltrates", "setting": "[5]; [9]", "result": 0.8}, {"measurement": "EPIDERMIS Disorganization", "setting": "[5]; [9]", "result": 2.0}, {"measurement": "EPIDERMIS Hyperplasia", "setting": "[5]; [9]", "result": 3.3}, {"measurement": "EPIDERMIS Necrosis", "setting": "[5]; [9]", "result": 1.0}, {"measurement": "EPIDERMIS Separation", "setting": "[5]; [9]", "result": 1.3}]}]}
